Measurements as given in patent publication US12595251B2, “Amidines and amidine analogs for the treatment of bacterial infections and potentiation antibiotics” (GEORGIA STATE UNIVERSITY RESEARCH FOUNDATION, INC., priority 2018, dated 2026).
Structures can show the parent of a compound that is named as a salt.

How the values were obtained:
[1] = test system: wild type B. subtilis; assay: Sensitization of B. subtilis toward antibiotics (MIC, OD600, 24 h); type: cell-based, Bacillus subtilis
Method: FIG. 22A is a bar graph showing that Compound M-1 sensitizes B. subtilis towards rifampicin as described in Example 13. Bacteria was cultured with rifampicin at various concentrations in the presence or absence of Compound M-1 for 24 hours at 37° C. and bacterial growth density was determined by measuring OD600. The y-axis is growth density measured in percent. The x-axis is rifampicin concentration measured in micrograms per milliliter (***: p<0.01).
Compound M-1 can sensitize Gram-positive bacteria such as B. subtilis towards traditional antibiotics. […] The sensitization fold is 32-fold for Compound M-1 and the FIC index is 0.14.

[2] = test system: B. subtilis; assay: B. subtilis viability with antibiotic in absence or presence of compound (OD600, 20 h); type: cell-based, Bacillus subtilis
Method: Bacterial viability was then determined by measuring density using OD600. […] B. subtilis was also cultured with either novobiocin or tetracycline at varying concentrations either in the absence or presence of compound M-1 (12.5 μM) for 20 hours. Bacterial viability was subsequently determined by measuring density using OD600.
(§1) Bacterial viability was then determined by measuring density using OD600.

[3] = test system: E. coli; assay: O-methyl novobiocin concentration inside E. coli (HPLC of lysate); type: cell-based, Escherichia coli; conditions: 50 μg/ml O-methyl novobiocin, 24 h, with 10 μg/ml Compound M-1 vs without
Method: The antibiotic concentration inside E. coli with and without Compound M-1 was measured. The inactivated form of antibiotic was used because the active antibiotic would kill the bacteria or inhibit bacterial growth and this would lead to results that cannot be compared against other control experiments. O-Methyl novobiocin is an inactivated form of novobiocin that was used for this experiment.
E. coli was cultured with 50 μg/ml O-methyl novobiocin for 24 hours at 37° C. with continuous shaking in the absence and presence of 10 μg/ml Compound M-1. E. coli was then centrifuged and the supernatant was removed. To the precipitation that contained E. coli, PBS and novobiocin were added as internal standard and the resulting mixture was sonicated to lyse the cell. The mixture was diluted with acetonitrile (3×) and centrifuged. The supernatant, which contained O-methyl novobiocin, was analyzed by HPLC. The O-methyl novobiocin concentrations inside the bacteria increased 9.1-fold in E. coli in the presence of 10 μg/ml Compound M-1 (FIG. 19). Such results correlate well with the fact that 10 μg/ml Compound M-1 can sensitize E. coli towards novobiocin 8-fold.

[4] = test system: wild-type E. coli; assay: Sensitization of wild-type E. coli toward antibiotics (MIC of antibiotic with/without sensitizer); type: cell-based, Escherichia coli
Method: Bacteria were cultured with the antibiotic at various concentrations in the presence or absence of bacterial sensitizer for 24 hours at 37° C. Bacterial growth density was determined by measuring OD600 (absorbance measured at a wavelength of 600 nm). […]
The formula for calculating FIC is shown below: […]

[5] = test system: MRSA; assay: Sensitization of MRSA toward antibiotics (OD600, 24 h); type: cell-based, Staphylococcus aureus
Method: Bacteria was cultured with rifampicin at various concentrations in the presence or absence of Compound M-1 for 24 hours at 37° C. and bacterial growth density was determined by measuring OD600. The y-axis is growth density measured in percent. The x-axis is rifampicin concentration measured in micrograms per milliliter (***: p<0.01).
Compound M-1 (2.7 μg/ml) sensitizes MRSA towards existing antibiotics such as rifampicin (32-fold) (FIG. 22B) and trovafloxacin (16-fold). Rifampicin is the first line of defense against MRSA and many MRSA stains grow resistance to rifampicin through overexpression of efflux pump and other mechanisms. Combined with Compound M-1, rifampicin can be used more effectively against MRSA.

[6] = test system: E. coli; assay: E. coli viability with antibiotic in absence or presence of compound (OD600, 20 h); type: cell-based, Escherichia coli
Method: as §1

[7] = test system: wild type B. subtilis; assay: Sensitization of B. subtilis toward antibiotics (MIC, OD600, 24 h); type: cell-based, Bacillus subtilis; conditions: Compound M-1 5.5 μg/ml
[8] = test system: E. coli; assay: Resistance frequency analysis of E. coli on agar plates; type: cell-based, Escherichia coli; conditions: from 6*10^8 CFU E. coli; antibiotic at 2 to 6-fold MIC with 10 μg/ml Compound M-1, 48 h
Method: Resistance frequency is an important issue to consider when developing new antimicrobial agents. Using a standard resistance frequency analysis procedure, the resistance frequency was determined. […] Colonies that survived the antibiotic and Compound M-1 combination were considered resistant mutant strains toward this combinational treatment. […] Compound M-1 lowers the resistance frequency of bacteria toward antibiotics. The component in the combination responsible for the resistance was next determined. The 16 resistant colonies were challenged with another combination-rifampicin and Compound M-1.

`Cc1cc(COc2ccc(C(=N)N)cc2)cc(COc2ccc(C(=N)N)cc2)c1` [Compound M-1, 4,4′-(((5-Methyl-1,3-phenylene)bis(methylene))bis(oxy))dibenzimidamide Hydrochloride] was tested, and the “FIC index, rifampicin on B. subtilis” value ([1]; 5.5 μg/ml Compound M-1) was 0.11, the “Sensitization fold, B. subtilis towards rifampicin” value ([1]; 5.5 μg/ml Compound M-1) was 256 fold and the “Growth density compared with no-treatment group” value ([1]; 5.5 μg/ml of Compound M-1 by itself) was 80%. The MIC ([1]; Bacillus subtilis, read-out: MIC on wild type B. subtilis) was 50 µg/mL, the viability at 12.5 µM ([2]; Bacillus subtilis, 12.5 μM, 20 h, read-out: B. subtilis viability, compound alone) was 80% and the “B. subtilis growth inhibition, compound in combination with novobiocin or tetracycline” value ([2]; Compound M-1 12.5 μM, 20 h) was “significant bacterial growth inhibition”. For the same compound, the “Effect of lipoteichoic acid (LTA) on growth inhibition by erythromycin + M-1 in B. subtilis” value ([2]; LTA 1 mg/mL) was “could be inhibited by co-culturing with lipoteichoic acid (LTA)”, the “B. subtilis growth inhibition, compound in combination with erythromycin vs erythromycin alone” value ([2]; M-1 12.5 or 6 μM, A-2 6 or 12.5 μM, A-8, 20 h) was “significant bacterial growth inhibition” and the “Increase of O-methyl novobiocin concentration inside E. coli” value [3] was 9.1 fold. For the same compound, the “Sensitization of E. coli towards novobiocin” value ([4]; 10 μg/ml Compound M-1) was 8 fold, the Sensitization fold ([4]; compound at 5 μg/ml, strain and antibiotic not stated in Table 8) was 8 and the “Sensitization fold, MRSA towards rifampicin” value ([5]; Compound M-1 2.7 μg/ml) was 32 fold. The “Sensitization fold, MRSA towards trovafloxacin” value ([5]; Compound M-1 2.7 μg/ml) was 16 fold, the “Sensitization of MRSA towards rifampicin (qualitative)” value ([5]; FIG. 22B, 24 h, 37 °C) was “sensitize MRSA towards rifampicin” and the “Effect of LPS or Mg2+ on sensitization of E. coli by M-1 with erythromycin” value ([6]; 2 mg/mL LPS or 21 mM Mg2+, M-1 12 μM) was “inhibited”. The “E. coli growth inhibition, compound in combination with erythromycin” value ([6]; M-1 25 μM or 12 μM, A-1 12 μM, A-8, 20 h) was “significant bacterial growth inhibition”, the “FIC index, erythromycin on B. subtilis” value [7] was 0.14 and the “Sensitization fold, B. subtilis towards clarithromycin” value [7] was 32 fold. For the same compound, the “Sensitization fold, B. subtilis towards clindamycin” value [7] was 16 fold, the “Sensitization fold, B. subtilis towards entrapenem” value [7] was 4 fold and the “Sensitization fold, B. subtilis towards erythromycin” value [7] was 32 fold. The “Sensitization fold, B. subtilis towards methicillin” value [7] was 4 fold, the “Sensitization fold, B. subtilis towards novobiocin” value [7] was 4 fold and the “Sensitization fold, B. subtilis towards trovafloxacin” value [7] was 8 fold. The “Colonies resistant to antibiotic-Compound M-1 combinations” value [8] was 16 colonies.
